The values below come from patent publication US10913727B2, “Modulators of the integrated stress pathway” (Calico Life Sciences LLC, priority 2016, dated 2021).

In the assay the test system is HEK293T cells carrying the ATF4 luciferase reporter. Put plainly: ATF4-Luc assay, in vitro model of Vanishing Cell White Matter Disease (VWMD). It is filed as cell-based. The note with it: Homo sapiens, HEK-293T, 1 μg/mL tunicamycin, 7 hours, One Glo luminescence. A digest of the protocol:
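Reporter cells were stably generated by retroviral transduction and puromycin selection, then seeded at 30,000 cells/well. Next day, cells received 1 μg/mL tunicamycin with 200 nM test compound for 7 h, and luciferase luminescence was read with a one-step reagent. Values reported as EC50.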
With `N#Cc1ccnc(C(=O)NC23CCC(NC(=O)COc4ccc(Cl)c(F)c4)(CC2)C(O)C3)c1` (stereo not drawn) [Compound 932, N-{4-[2-(4-chloro-3-fluorophenoxy)acetamido]-3-hydroxybicyclo[2.2.2]octan-1-yl}-4-cyanopyridine-2-carboxamide], the EC50 is 0.05 to 0.25 µM.
As for `O=C(COc1ccc(Cl)c(F)c1)NC12CCC(NC(=O)c3cc(C(F)(F)F)ccn3)(CC1)CC2O` (stereo not drawn) [Compound 933, N-{4-[2-(4-chloro-3-fluorophenoxy)acetamido]-3-hydroxybicyclo[2.2.2]octan-1-yl}-4-(trifluoromethyl)pyridine-2-carboxamide], the EC50 is 0.05 to 0.25 µM.
Turning to `O=C(COc1ccc(Cl)c(F)c1)NC12CCC(NC(=O)c3cc(-n4ccnc4)ccn3)(CC1)CC2O` (stereo not drawn) [Compound 934, N-{4-[2-(4-chloro-3-fluorophenoxy)acetamido]-3-hydroxybicyclo[2.2.2]octan-1-yl}-4-(1H-imidazol-1-yl)pyridine-2-carboxamide], the EC50 lay within 1 to 2 µM.
`O=C(COc1ccc(Cl)c(F)c1)NC12CCC(NC(=O)c3cc(N4CCOCC4)ccn3)(CC1)CC2O` (stereo not drawn) [Compound 935, N-{4-[2-(4-chloro-3-fluorophenoxy)acetamido]-3-hydroxybicyclo[2.2.2]octan-1-yl}-4-(morpholin-4-yl)pyridine-2-carboxamide]: the EC50 is > 2 µM.
The same measure for `O=C(COc1ccc(Cl)c(F)c1)NC12CCC(NC(=O)c3cc(F)ccn3)(CC1)CC2O` (stereo not drawn) [Compound 936, N-{4-[2-(4-chloro-3-fluorophenoxy)acetamido]-3-hydroxybicyclo[2.2.2]octan-1-yl}-4-fluoropyridine-2-carboxamide]: 0.05 to 0.25 µM; for `N#Cc1ccc(C(=O)NC23CCC(NC(=O)COc4ccc(Cl)c(F)c4)(CC2)C(O)C3)nc1` (stereo not drawn) [Compound 937, N-{4-[2-(4-chloro-3-fluorophenoxy)acetamido]-3-hydroxybicyclo[2.2.2]octan-1-yl}-5-cyanopyridine-2-carboxamide]: < 0.05 µM.
Next, `O=C(COc1ccc(Cl)c(F)c1)NC12CCC(NC(=O)c3ccc(C4CC4)cn3)(CC1)CC2O` (stereo not drawn) [Compound 938, N-{4-[2-(4-chloro-3-fluorophenoxy)acetamido]-3-hydroxybicyclo[2.2.2]octan-1-yl}-5-cyclopropylpyridine-2-carboxamide]: 0.05 to 0.25 µM; `O=C(COc1ccc(Cl)c(F)c1)NC12CCC(NC(=O)c3ccc(-c4ccc(F)cc4)cn3)(CC1)CC2O` (stereo not drawn) [Compound 939, N-{4-[2-(4-chloro-3-fluorophenoxy)acetamido]-3-hydroxybicyclo[2.2.2]octan-1-yl}-5-(4-fluorophenyl)pyridine-2-carboxamide]: > 2 µM; `O=C(COc1ccc(Cl)c(F)c1)NC12CCC(NC(=O)c3ccc(N4CCCC4)cn3)(CC1)CC2O` (stereo not drawn) [Compound 940, N-{4-[2-(4-chloro-3-fluorophenoxy)acetamido]-3-hydroxybicyclo[2.2.2]octan-1-yl}-5-(pyrrolidin-1-yl)pyridine-2-carboxamide]: 0.05 to 0.25 µM.
The same measure for `O=C(COc1ccc(Cl)c(F)c1)NC12CCC(NC(=O)c3cccc(C(F)(F)F)n3)(CC1)CC2O` (stereo not drawn) [Compound 941, N-{4-[2-(4-chloro-3-fluorophenoxy)acetamido]-3-hydroxybicyclo[2.2.2]octan-1-yl}-6-(trifluoromethyl)pyridine-2-carboxamide]: < 0.05 µM; for `O=C(COc1ccc(Cl)c(F)c1)NC12CCC(NC(=O)c3cccc(N4CCOCC4)n3)(CC1)CC2O` (stereo not drawn) [Compound 942, N-{4-[2-(4-chloro-3-fluorophenoxy)acetamido]-3-hydroxybicyclo[2.2.2]octan-1-yl}-6-(morpholin-4-yl)pyridine-2-carboxamide]: 1 to 2 µM.
Consider `O=C(COc1ccc(Cl)c(F)c1)NC12CCC(NC(=O)c3cccc(O)n3)(CC1)CC2O` (stereo not drawn) [Compound 943, N-{4-[2-(4-chloro-3-fluorophenoxy)acetamido]-3-hydroxybicyclo[2.2.2]octan-1-yl}-6-hydroxypyridine-2-carboxamide], for which the EC50 lay in the range of 0.05 to 0.25 µM.

The term EC50 denotes the concentration needed to bring the measured effect to its halfway point.
